From PubChem BioAssay (NCI)
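A five-concentration, 48-hour dose response in 96-well plates underlies each endpoint, interpolated linearly between surrounding concentrations. TGI is the concentration that stops growth completely.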 Where a SMILES comes first, the peptide text is derived from it. The star is where a group is joined. Bn = c1ccc(C*)cc1

Legend:
Test in all cases: inhibition of tumour cell growth, NCI panel, 48 h
[1] = system: NCI-H522 lung
[2] = system: OVCAR-5 ovarian
[3] = system: SK-OV-3 ovarian
[4] = system: OVCAR-3 ovarian
[5] = system: UACC-62 melanoma
[6] = system: SK-MEL-2 melanoma
[7] = system: OVCAR-4 ovarian
[8] = system: EKVX NSCLC
[9] = system: COLO 205 colon
[10] = system: SK-MEL-28 melanoma

Structure (SMILES) | TGI [1] | TGI [2] | TGI [3] | TGI [4] | TGI [5] | TGI [6] | TGI [7] | TGI [8] | TGI [9] | TGI [10]
Cc1cc2nc(-c3cc(C(C)(C)C)c(O)c(C(C)(C)C)c3)[nH]c2cc1C | > 100 µM | > 100 µM | > 100 µM | > 100 µM | 2.74 µM | > 100 µM | > 23.3 µM | > 100 µM | > 100 µM | > 100 µM
CC(C)(C)c1ccc(OCC(=O)O)c(Cl)c1 | > 100 µM | > 100 µM | > 100 µM | > 100 µM | > 100 µM | > 100 µM | > 100 µM | > 100 µM | > 100 µM | > 100 µM
COC(=O)[C@H](C)NC(=O)[C@H](CSC)N1C(=O)N[C@@H](C(C)C)C1=O | > 100 µM | > 100 µM | > 100 µM | > 100 µM | > 100 µM | > 100 µM | > 100 µM | > 100 µM | > 100 µM | > 100 µM
C[C@]1(S(=O)(=O)c2ccccc2)C[C@H]2N(Cc3ccccc3)[C@@H]1CCC21OCCO1 | > 100 µM | > 100 µM | > 100 µM | > 100 µM | > 100 µM | > 100 µM | > 100 µM | > 100 µM | > 100 µM | > 100 µM
COC(=O)c1cc(C)ccc1CC(Cc1ccc(C)cc1)C(=O)OC (stereo not given) | > 100 µM | > 85.4 µM | 67.2 µM | > 100 µM | > 100 µM | > 90.3 µM | > 100 µM | > 100 µM | > 100 µM | > 100 µM
COC(=O)C(CC(C)C)NC(=O)C(N)Cc1ccc(OCc2ccccc2)cc1 (stereo not given) (H-Tyr(Bn)-Leu-OMe; configuration not given here) | > 10 µM | > 10 µM | > 10 µM | > 10 µM | > 10 µM | > 10 µM | > 10 µM | > 10 µM | > 10 µM | > 10 µM
COc1ccc(N=Nc2c3c(c(O)c4ccccc24)CCC(C)(C)O3)cc1 | 33.5 µM | 43.3 µM | > 100 µM | 33.2 µM | 28.6 µM | 40.3 µM | 50.4 µM | 54.1 µM | 72.8 µM | 43.1 µM
Cc1c2ccncc2c(C)c2c1[nH]c1ccccc12 | 2.93 µM | 4.23 µM | 4.44 µM | 2.65 µM | 6.02 µM | 6.79 µM | 2.66 µM | 3 µM | 1.83 µM | 3 µM
COc1c(O)c(O)cc2c1-c1ccc(OC)c(=O)cc1C(NC(C)=O)CC2 (stereo not given) | 3.5 µM | 80.6 µM | 32.9 µM | 5.77 µM | 24.8 µM | 50.6 µM | 77.2 µM | 98.2 µM | 9.07 µM | > 100 µM
COc1cc2c(c(O)c1O)-c1ccc(OC)c(=O)cc1C(NC(C)=O)CC2 (stereo not given) | 6.48 µM | > 100 µM | 60.4 µM | 8.3 µM | 45.7 µM | 16.5 µM | > 84.2 µM | > 100 µM | 12.6 µM | > 100 µM
NC(=O)c1ncn2c1NC(=O)CC2 | > 100 µM | > 100 µM | > 100 µM | > 100 µM | > 100 µM | > 100 µM | > 100 µM | > 100 µM | > 100 µM | > 100 µM
O=C(OCc1ccccc1)C(Cc1ccccc1)N(Cc1ccccc1)Cc1ccccc1 (stereo not given) | > 100 µM | > 100 µM | > 100 µM | > 100 µM | > 100 µM | > 100 µM | > 100 µM | > 100 µM | > 100 µM | > 100 µM
COP(=O)(OC)C12CCOCCN1c1ccccc1C2=O (stereo not given) | > 100 µM | > 100 µM | > 100 µM | > 100 µM | > 100 µM | > 100 µM | > 100 µM | > 100 µM | > 100 µM | > 100 µM
O=C1CC(Sc2nc3ccc(I)cc3c(=O)n2Cc2ccccc2)C(=O)NN1 (stereo not given) | 4.26 µM | 41.4 µM | 29.7 µM | 31.2 µM | 29.3 µM | 31.8 µM | 36.8 µM | 31.8 µM | 34.5 µM | 31.7 µM
N#CCCN(CCC#N)c1ccc(/C=C2\SC(=S)NC2=O)cc1Br | > 100 µM | > 100 µM | > 100 µM | > 100 µM | > 100 µM | > 100 µM | > 100 µM | > 100 µM | > 100 µM | > 100 µM
CCc1nc2cc3cccnc3c(Cl)c2[nH]c1=O | > 100 µM | > 100 µM | > 100 µM | > 100 µM | > 100 µM | > 100 µM | > 100 µM | > 100 µM | > 100 µM | > 100 µM
CC1C(c2ccc3c(c2)OCO3)c2cc3c(cc2OC1N1CCOCC1)OCO3 (stereo not given) | 31.1 µM | > 100 µM | > 100 µM | > 93.8 µM | 69.5 µM | 58.8 µM | > 100 µM | > 100 µM | 47.4 µM | > 46.4 µM
COC(=O)C1=C(C)NC(C)=C([N+](=O)[O-])C1c1cccc(N=O)c1 (stereo not given) | 5.34 µM | 30.5 µM | 46.6 µM | 28.6 µM | 29 µM | 33.8 µM | 24.7 µM | 41.2 µM | 29 µM | 32 µM
